Laboratory results as given in patent publication US20070185167A1, “SODIUM SALTS OF 5-[4-[2-(N-METHYL-N-(2-PYRIDYL)AMINO)ETHOXY]BENZYL]THIAZOLIDINE-2,4-DIONE” (SmithKline Beecham p.l.c., priority 2000, published 2007).

Legend:
[1] = especially under humid conditions
[2] = 25° C and 75% relative humidity, approximately constant weight
Text: For the avoidance of doubt when used herein the terms “non-hygroscopic”, “slightly hygroscopic”, “moderately hygroscopic” and “very hygroscopic” are to have the meanings defined by the above mentioned criteria.

With `CN(CCOc1ccc(CC2SC(=O)NC2=O)cc1)c1ccccn1.[Na]` (centres unmarked) [Sodium Salt, 5-[4-[2-(N-Methyl-N-(2-pyridyl)amino)ethoxy]benzyl]thiazolidine-2,4-dione, Sodium Salt] the solid state stability [1] was “good solid state stability” and the “hygroscopicity classification (% weight gain)” value [2] was “non-hygroscopic (<2%)”.
